Common to all, as to format: cell-based
In one experiment the target is T1, PfFNT wildtype (Plasmodium falciparum, UniProt O77389).
T1 construct: expressed in transfected cells; host or cells: Saccharomyces cerevisiae W303-1A jen1Δ ady2Δ, plasmid pDR196
Nature of the experiment: Inhibition of radiolabelled L-lactate uptake in yeast expressing wild-type PfFNT. As for the experimental part:
(§1) Plasmodium falciparum were kept in culture in 5% 0+ erythrocytes in RPMI 1640 medium containing 0,5% Albumax at 37 °C. […] Medium containing test compounds was exchanged every 24 h. In order to test for the propensity of parasites to develop resistance to a given substance, 3D7 parasites were grown in the presence of 3 x IC50 of a test for 30 days. Thereafter the drug was removed by exchanging the medium, and the day recorded when parasites resurfaced in the culture. As an alternative to Plasmodium falciparum, the FNT of the wild-type plasmodium (available under accession number PF3D7_0316600 in the data bank PlasmoDB) and the FNT (G107S mutant FNT) of the resistant plasmodia were expressed in the yeast Saccharomyces cerevisiae W303-1A jen1Δ ady2Δ from plasmid pDR196 (PMA promoter). In the yeast, the endogenous genes for the monocarboxylate transporter Jen1p (sequence accession No. CAA82062 NCBI) and Ady2p (sequence accession No. KZV12856) were deleted (obtained from M. Casal, Universidade do Minho, Portugal).
(§2) This yeast was grown in SD medium with addition of adenine, histidine, leucine, tryptophan and 2 % (wt/v) glucose at 30 °C up to an OD600 of 0.8 to 1.0, harvested by centrifugation and washed once with water and centrifuged down again, and suspended in 50 mM HEPES/TRIS (pH 6.8) and adjusted to an OD600 of 50± 10% and stored on ice. For contacting with one of the compounds a compound of one step of a dilution series in DMSO was provided in a reaction vessel and onto this 80 µL of the yeast suspension were pipetted. After an incubation on ice for 15 to 20 min 20 µL 5 mM Na-L-lactate plus 0.04 µCi radioactively labelled L-(1-^14C) lactate was added. The lactate concentration obtained was 1 mM. After an incubation of 30 s the uptake of lactate was stopped by a rapid dilution by means of adding of 1 ml ice cold water. From the yeast suspension diluted this way the yeast cells were brought onto a filter membrane by vacuum filtration, washed with 7 ml cold water and transferred with the filter membrane into 3 ml scintillation cocktail. After 24 h of incubation at 18 °C in the scintillation cocktail, in which the cells were lysed, the amount of radioactively labelled lactate was measured by means of a scintillation counter. The total amount of lactate which was taken up by the yeast was calculated from the measured amount of radioactively labelled lactate. As a positive control the yeast was treated equally in parallel testing with DMSO without one of the compounds and was regarded as 100% FNT activity, respectively 0% inhibition. In tests with the compound a lower amount of lactate taken up was found in comparison to the parallel positive control. As a negative control yeast was treated in parallel in which the endogenous genes for the monocarboxylate transporters Jen1p and Ady2p were deleted, but the FNT from plasmodium was not expressed. This negative control was regarded as 0% FNT activity, respectively 100% inhibition.

The next experiment concerns the target T2, PfFNT G107S (Plasmodium falciparum, UniProt O77389, G107S).
T2 construct: expressed in transfected cells; host or cells: Saccharomyces cerevisiae W303-1A jen1Δ ady2Δ, plasmid pDR196
T2 sequence (O77389 1-309 G107S): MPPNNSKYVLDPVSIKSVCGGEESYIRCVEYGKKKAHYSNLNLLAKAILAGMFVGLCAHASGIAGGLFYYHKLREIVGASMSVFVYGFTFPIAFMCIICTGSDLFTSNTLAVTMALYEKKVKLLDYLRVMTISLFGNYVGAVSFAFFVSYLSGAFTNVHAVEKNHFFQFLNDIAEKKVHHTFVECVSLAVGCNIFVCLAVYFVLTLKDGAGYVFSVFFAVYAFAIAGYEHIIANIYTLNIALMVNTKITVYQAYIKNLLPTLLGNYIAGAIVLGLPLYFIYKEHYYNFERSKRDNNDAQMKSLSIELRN
Kind of experiment: Inhibition of radiolabelled L-lactate uptake in yeast expressing G107S mutant PfFNT. As for the experimental part:
as §1, §2

The target of another experiment is FNT of P. vivax (PvFNT) (Plasmodium vivax, UniProt A0A1G4GWI6). Nature of the experiment: Inhibition of the FNT of P. vivax.
In experiment [1] the target is FNT of P. knowlesi (PkFNT) (Plasmodium knowlesi, UniProt A0A679KXN5). Kind of experiment: Inhibition of the FNT of P. knowlesi.
The target in the next experiment is FNT of P. ovale (PoFNT) (Plasmodium ovale, UniProt A0A1D3TGZ2). Nature of the experiment: Inhibition of the FNT of P. ovale.
Experiment [2] deals with FNT of P. malariae (PmFNT) (Plasmodium malariae, UniProt A0A1C3KYI2). Kind of experiment: Inhibition of the FNT of P. malariae.
Where [3] appears, read: G107S mutant FNT, 1 mM lactate, pH 6.8, 30 s uptake, read-out: PfFNT G107S IC50.
The mark [4] stands for this setting: read-out: IC50 for the FNT of P. vivax (PvFNT).

Read-outs that look alike come from different tables or passages of the source.

Chain of FNT of P. knowlesi (PkFNT) (A0A679KXN5 whole entry): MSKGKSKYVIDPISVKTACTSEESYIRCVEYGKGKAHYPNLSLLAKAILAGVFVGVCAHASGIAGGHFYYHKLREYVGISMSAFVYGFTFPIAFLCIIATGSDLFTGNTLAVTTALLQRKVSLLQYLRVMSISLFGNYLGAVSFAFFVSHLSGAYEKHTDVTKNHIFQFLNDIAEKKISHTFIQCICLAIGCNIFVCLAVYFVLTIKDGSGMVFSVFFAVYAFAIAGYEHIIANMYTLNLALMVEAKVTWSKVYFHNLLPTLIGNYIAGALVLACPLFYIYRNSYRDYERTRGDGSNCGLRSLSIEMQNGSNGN
Chain of FNT of P. vivax (PvFNT) (A0A1G4GWI6 whole entry): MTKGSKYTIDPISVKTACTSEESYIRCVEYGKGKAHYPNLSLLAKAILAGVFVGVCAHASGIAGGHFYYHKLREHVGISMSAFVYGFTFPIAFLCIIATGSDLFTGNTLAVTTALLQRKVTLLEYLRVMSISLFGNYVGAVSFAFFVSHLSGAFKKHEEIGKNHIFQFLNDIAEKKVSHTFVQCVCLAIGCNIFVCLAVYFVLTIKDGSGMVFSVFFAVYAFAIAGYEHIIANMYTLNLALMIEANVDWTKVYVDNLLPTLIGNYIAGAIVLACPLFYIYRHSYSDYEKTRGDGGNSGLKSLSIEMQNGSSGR
T1 sequence (O77389 whole entry): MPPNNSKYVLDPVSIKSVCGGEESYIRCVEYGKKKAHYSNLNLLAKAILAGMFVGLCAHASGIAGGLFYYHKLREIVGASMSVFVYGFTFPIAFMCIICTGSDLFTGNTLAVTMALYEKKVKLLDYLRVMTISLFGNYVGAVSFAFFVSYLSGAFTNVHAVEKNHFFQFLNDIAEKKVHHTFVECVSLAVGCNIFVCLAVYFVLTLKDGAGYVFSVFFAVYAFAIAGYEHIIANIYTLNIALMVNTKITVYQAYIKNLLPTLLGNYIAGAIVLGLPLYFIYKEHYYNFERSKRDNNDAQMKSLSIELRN
Chain of FNT of P. ovale (PoFNT) (A0A1D3TGZ2 whole entry): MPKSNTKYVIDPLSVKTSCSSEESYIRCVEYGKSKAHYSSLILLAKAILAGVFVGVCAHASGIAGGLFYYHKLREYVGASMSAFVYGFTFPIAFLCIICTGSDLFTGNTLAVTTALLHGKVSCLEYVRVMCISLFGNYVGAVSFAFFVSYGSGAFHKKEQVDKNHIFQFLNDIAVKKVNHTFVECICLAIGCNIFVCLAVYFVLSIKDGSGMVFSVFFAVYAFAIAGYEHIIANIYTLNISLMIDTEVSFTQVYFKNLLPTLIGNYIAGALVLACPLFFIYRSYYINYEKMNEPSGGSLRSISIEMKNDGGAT
Chain of FNT of P. malariae (PmFNT) (A0A1C3KYI2 whole entry): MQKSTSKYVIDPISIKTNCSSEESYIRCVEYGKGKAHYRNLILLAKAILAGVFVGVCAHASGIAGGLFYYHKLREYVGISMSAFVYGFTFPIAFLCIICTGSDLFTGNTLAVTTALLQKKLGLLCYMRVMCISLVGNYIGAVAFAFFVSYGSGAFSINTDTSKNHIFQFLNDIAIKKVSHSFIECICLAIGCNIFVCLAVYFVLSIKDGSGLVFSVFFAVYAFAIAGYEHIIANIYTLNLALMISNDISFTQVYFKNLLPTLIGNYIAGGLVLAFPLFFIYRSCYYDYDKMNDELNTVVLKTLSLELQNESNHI

On PfFNT wildtype, `O=C(C=C(O)C(F)(F)CO)c1cccnc1` [compound [21], 4,4-difluoro-3,5-dihydroxy-1-(3-pyridyl)pent-2-en-1-one] yielded an IC50 of 5500 nM.

`COc1ccc(C(=O)C=C(O)C(F)(F)C(F)(F)F)c(O)c1` [compound [1], reference compound]: the half-inhibitory concentration (IC50) on PfFNT wildtype came out at 170 ± 10 nM; on PfFNT G107S (setting [3]) it was 21000 ± 1000 nM; on FNT of P. vivax (PvFNT) (setting [4]), 69 ± 3 nM; in experiment [1], 212 ± 70 nM.

In the case of `Cn1ccc(C(=O)C=C(O)C(F)(F)C(F)(F)F)c1` [compound [6], reference compound], the concentration for half-maximal inhibition (IC50) is 130 ± 10 nM on PfFNT wildtype and 14000 ± 1000 nM at PfFNT G107S (setting [3]).

Take `Cc1ccc(C(=O)C=C(O)C(F)(F)C(F)(F)F)cn1` [compound [18], 4,4,5,5,5-pentafluoro-3-hydroxy-1-(6-methyl-3-pyridyl)pent-2-en-1-one]: the half-inhibitory concentration (IC50) against PfFNT wildtype came out at 150 ± 10 nM; against PfFNT G107S, 1700 ± 300 nM.

As to `O=C(C=C(O)C(F)(F)C(F)(F)F)c1cccnc1` [compound [16], 4,4,5,5,5-pentafluoro-3-hydroxy-1-(3-pyridyl)pent-2-en-1-one], the concentration for half-maximal inhibition (IC50) was 110 ± 10 nM on PfFNT wildtype; 630 ± 50 nM on PfFNT G107S; 229 ± 10 nM against FNT of P. vivax (PvFNT); 874 ± 60 nM in experiment [1]; 213 ± 30 nM on FNT of P. ovale (PoFNT); 214 ± 20 nM in experiment [2].

With `O=C(C=C(O)C(F)(F)C(F)(F)F)c1ccc[nH]1` [compound [4], reference compound], the results for the half-inhibitory concentration (IC50) against PfFNT wildtype and at PfFNT G107S (setting [3]) were 160 ± 10 nM and 12000 ± 1000 nM, respectively.

As for `COc1ccc(C(=O)C=C(O)C(F)(F)C(F)(F)F)cn1` [compound [20], 4,4,5,5,5-pentafluoro-3-hydroxy-1-(6-methoxy-3-pyridyl)pent-2-en-1-one], the IC50 at PfFNT wildtype was found to be 110 ± 10 nM; on PfFNT G107S, 260 ± 50 nM.

With `O=C(C=C(O)C(F)(F)C(F)(F)F)c1cc[nH]c1` [compound [5], reference compound], the concentration for half-maximal inhibition (IC50) was 200 ± 10 nM at PfFNT wildtype and 13000 ± 1000 nM at PfFNT G107S (setting [3]).

For `CCCCC(F)(F)C(O)=CC(=O)c1cccnc1` [compound [22], 4,4-difluoro-3-hydroxy-1-(3-pyridyl)oct-2-en-1-one], the results for the IC50 against PfFNT wildtype and at PfFNT G107S (setting [3]) were 360 ± 50 nM and 24000 ± 6000 nM, respectively.

As to `O=C(C=C(O)C(F)(F)C(F)(F)F)c1ccccn1` [compound [15], 4,4,5,5,5-pentafluoro-3-hydroxy-1-(2-pyridyl)pent-2-en-1-one], the IC50 at PfFNT wildtype worked out at 150 ± 10 nM; at PfFNT G107S, 580 ± 90 nM.

As for `O=C(C=C(O)C(F)(F)C(F)(F)F)c1cnc2ccccc2c1` [compound [17], 4,4,5,5,5-pentafluoro-3-hydroxy-1-(3-quinolyl)pent-2-en-1-one], the half-inhibitory concentration (IC50) against PfFNT wildtype was found to be 240 ± 40 nM; on PfFNT G107S (read-out: PfFNT G107S IC50, G107S mutant FNT, 1 mM lactate, pH 6.8, 30 s uptake), 96000 ± 800 nM.

Regarding `O=C(C=C(O)C(F)(F)C(F)(F)F)c1cccnn1` [compound [12], 4,4,5,5,5-pentafluoro-3-hydroxy-1-pyridazin-3-yl-pent-2-en-1-one], the IC50 on PfFNT wildtype came out at 860 ± 30 nM; at PfFNT G107S it was 3800 ± 800 nM.

For the compound `O=C(C=C(O)C(F)(F)C(F)(F)F)c1cc2ccccc2o1` [compound [7], reference compound], the 50% inhibitory concentration (IC50) at PfFNT wildtype turned out to be 190 ± 10 nM; at PfFNT G107S (setting [3]), 17000 ± 2000 nM.

With `O=C(C=C(O)C(F)(F)C(F)(F)F)c1ccncc1` [compound [14], 4,4,5,5,5-pentafluoro-3-hydroxy-1-(4-pyridyl)pent-2-en-1-one], the IC50 turned out to be 150 ± 30 nM against PfFNT wildtype and 22000 ± 7000 nM at PfFNT G107S.

Consider `COc1ccc(C(=O)C=C(O)C(F)(F)C(F)(F)F)cc1` [compound [2], reference compound], for which the half-inhibitory concentration (IC50) is 140 ± 10 nM on PfFNT wildtype; 2700 ± 200 nM on PfFNT G107S (setting [3]); 249 ± 80 nM at FNT of P. vivax (PvFNT) (setting [4]); 985 ± 80 nM in experiment [1]; about 900 nM against FNT of P. ovale (PoFNT); 391 ± 50 nM in experiment [2].

`CC(C)(O)CC(=O)C=C(O)C(F)(F)C(F)(F)F` [compound [3], reference compound]: the IC50 on PfFNT wildtype was determined as 1100 ± 100 nM; on PfFNT G107S (setting [3]) it was 490000 ± 20000 nM.

For the compound `O=C(C=C(O)C(F)(F)C(F)(F)F)c1ccc(Cl)cn1` [compound [19], 1-(5-chloropyridin-2-yl)-4,4,5,5,5-pentafluoro-3-hydroxypent-2-en-1-one], the IC50 was determined as 230 ± 70 nM on PfFNT wildtype and 510 ± 90 nM at PfFNT G107S.

For the compound `O=C(C=C(O)C(F)(F)C(F)(F)F)c1cnccn1` [compound [13], 4,4,5,5,5-pentafluoro-3-hydroxy-1-pyrazin-2-yl-pent-2-en-1-one], the IC50 was 460 ± 30 nM against PfFNT wildtype and 1200 ± 300 nM against PfFNT G107S.

One may read the IC50 as the concentration at which inhibition is half-maximal.

Values taken from EP3936128A1, “ACTIVE SUBSTANCE AGAINST PROTOZOA” (Christian-Albrechts-Universität zu Kiel, priority 2020, dated 2022).
